Positions of bridges follow the written chain, without caps; N, C: chain ends. Non-standard residues stand in square brackets, D forms with d. Residues, ends and D or L forms follow the SMILES beside them. *: point of attachment. 5FAM = O=C1OC2(c3ccc(O)cc3Oc3cc(O)ccc32)c2ccc(C(=O)*)cc21; βAla = NCCC(=O)O
Key:
[1] = tested on: TmrAB in liposomes; assay: ATP hydrolysis assay; format: biochemical, Thermus thermophilus; conditions: TmrAB in liposomes 100 nM; ATP 2 mM; CP^F 1 µM; 10 min 45°C; without CP 1.49, autohydrolysis 0.62
Source text: In order to investigate the functional impact of CPs, we examined the effect of the CPs on ATP hydrolysis and substrate transport of TmrAB (Figure 3A). We reconstituted TmrAB in liposomes and first assayed the ATPase activity. […] We next set out to investigate peptide transport by TmrAB using a filter-based transport assay. To investigate whether CPs are recognized as substrates by TmrAB, we added fluorescein-labeled CP^Fs and examined ATP-dependent translocation. In contrast to the linear substrate peptide C4F, none of the CP^Fs were transported by TmrAB (Figure 3C). Next, we examined ATP-dependent transport of C4F peptides in the presence and absence of the different CPs.
Figure 3. CP^Fs are potent inhibitors of ATP turnover and substrate transport. (A) Experimental scheme of ATP hydrolysis and peptide transport by TmrAB. (B) CP^Fs inhibit ATP hydrolysis. TmrAB in liposomes (100 nM) was incubated with ATP (2 mM, traced with [γ^32P]-ATP), and MgCl2 (5 mM) in the presence and absence of CP^Fs (1 µM) for 10 min at 45°C. Autohydrolysis was determined in the absence of TmrAB, and background turnover was conducted in the presence of EDTA (10 mM). Release of [γ^32P] was quantified by thin layer chromatography. (C) CP^Fs are not transported by TmrAB. TmrAB (0.4 µM) reconstituted in liposomes was incubated with C4F peptide (3 µM) or CP^Fs (1 µM) in the presence of ATP/ADP (3 mM) and MgCl2 (5 mM) for 5 min at 45°C. Since CP^Fs were dissolved in maximal 0.5% (v/v) of DMSO, C4F plus 0.5% DMSO served as control. Proteoliposomes were washed on filter plates, and transported peptides were quantified at λex/em = 485/520 nm. (D) Inhibition of substrate translocation. TmrAB in liposomes (0.4 µM) were incubated with C4F peptide (3 µM), ATP/ADP (3 mM), and MgCl2 (5 mM) in the presence and absence of CP^Fs (1 µM) for 15 min at 45°C. Transported peptides were quantified as described in (C). In (B–C), mean values ± SD (n = 3) are shown. Figure 3—source data 1. Source data for Figure 3.
TmrAB reconstituted in liposomes (100 nM) were incubated with ATP (2 mM) traced with [γ^32P]-ATP (Hartmann Analytic), ouabain (1 mM), NaN3 (5 mM), EGTA (50 µM), MgCl2 (3 mM), and CP^Fs (1 µM) for 10 min at 45°C. Autohydrolysis and background hydrolysis were examined in the absence of proteoliposomes or the presence of EDTA (10 mM). Samples were spotted onto polyethyleneimine cellulose plates (Merck Millipore), and thin-layer chromatography was performed with 0.8 M LiCl-acetic acid pH 3.2. Plates were developed overnight on Exposure Cassette-K (Bio-Rad) and evaluated on Personal Molecular Imager System (Bio-Rad). Data were recorded in triplicates and the mean values ± SD (n = 3) are shown.

[2] = tested on: detergent-solubilized IF or OF TmrA^EQB; assay: CP^F anisotropy with IF or OF TmrA^EQB under nucleotide conditions; format: binding, Thermus thermophilus; conditions: for Binding under nucleotide conditions: absence and presence of ATP and ADP
Source text: ABC transport complexes such as TmrAB run through multiple conformational states along the ATP hydrolysis cycle to drive unidirectional substrate transport ([Hofmann et al., 2019]; [Stefan et al., 2020]). Within the substrate translocation cycle, two major conformers, inward-facing (IF) and outward-facing (OF), were identified. To investigate whether CPs favor one of these conformers, we probed the binding of CP^Fs by fluorescence polarization analysis. […] In the latter case, the interaction studies were performed immediately after the IF-to-OF switch by incubation with ATP for 5 min at 45°C. To exclude an OF-to-IF return (τ1/2 of 25 min) ([Stefan et al., 2020]), the fluorescence anisotropy was recorded only within the first minute of incubation.
Figure 5. […] (A, B) CP6^F (A) or CP13^F (B, 50 nM each) were incubated with increasing concentrations of detergent-solubilized inward-facing TmrAB (in the absence of Mg-ATP) or outward-facing TmrA^EQB, which was trapped with Mg-ATP (1 mM) for 5 min at 45°C as described ([Hofmann et al., 2019]; [Stefan et al., 2020]). Immediately after, the fluorescence anisotropy was assayed at λex/em = 485/520 nm. The difference in fluorescence polarization was normalized to free and fully bound CP^F. Data were fitted by a one-site binding model. […] TmrAB (2 µM each) were mixed with CP^Fs (4 µM), ATP (1 mM, traced with [α^32P]-ATP), and MgCl2 (5 mM) for 5 min at 4°C or 45°C. Cold ATP (10 mM) was added, and freely exchangeable nucleotides were removed by rapid gel filtration. Occluded nucleotides were analyzed by thin layer chromatography and autoradiography. Representative radiograms for independent triplicates are shown. (D) Stably occluded nucleotides, [α^32P]-ATP and [α^32P]-ADP, were quantified by autoradiography. Data were normalized to the vanadate-trapped state. In (A, B, D), mean values ± SD (n = 3) are shown. Figure 5—source data 1. Source Data for Figure 5. Figure 5—figure supplement 1. […] (A) CP^Fs (50 nM each) were incubated with increasing concentrations of detergent-solubilized IF TmrAB in the inward-facing (IF) conformation (absence of Mg-ATP) or TmrA^EQB populated in the outward-facing (OF) conformation, which was trapped in the OF conformation by Mg-ATP (1 mM) after 5 min incubation at 45°C. The difference in fluorescence polarization was normalized to unbound (0%) and 100% bound CP^F. Data were fitted by a one-site binding model. Fluorescence anisotropy was recorded at λex/em = 485/520 nm. […] TmrA^EQB (2 µM) were incubated in the absence and presence of CP^Fs (4 µM each), ATP (1 mM, traced with [α^32P]-ATP), and MgCl2 (5 mM) for 5 min at 4°C or 45°C. Cold ATP (10 mM) was added, and free nucleotides were removed by rapid gel filtration. Occluded nucleotides were analyzed by thin layer chromatography and autoradiography. Representative radiograms for independent triplicates are shown. […] Figure 5—figure supplement 1—source data 1.
To determine equilibrium binding constants, CP^Fs (50 nM) were incubated with increasing concentrations of TmrAB-containing or empty liposomes. To probe the conformational selectivity, CP^Fs (50 nM) were mixed with detergent-solubilized IF TmrAB or OF TmrA^EQB. Before, OF TmrA^EQB was nucleotide-trapped by incubation with ATP (1 mM) and MgCl2 (3 mM) in the absence of CP^Fs for 5 min at 45°C.

[3] = TmrAB, 4 °C, CP^F 50 nM, TmrA^EQB 150 nM (CP6^F), 170 nM (CP12^F), 50 nM (CP13^F), 120 nM (CP14^F)
[4] = TmrAB, 45 °C, no nucleotide, CP^F 50 nM, TmrA^EQB 50-170 nM
[5] = TmrAB, ADP, 45 °C, CP^F 50 nM, TmrA^EQB 50-170 nM
[6] = TmrAB, ATP, 45 °C (OF), CP^F 50 nM, TmrA^EQB 50-170 nM
[7] = listed as 4 °C: CP^F 50 nM without TmrAB

Structure (SMILES)	ATP hydrolysis [1]	Bound CP^F, fluorescence anisotropy [2, 3]	Bound CP^F, fluorescence anisotropy [2, 4]	Bound CP^F, fluorescence anisotropy [2, 5]	Bound CP^F, fluorescence anisotropy [2, 6]	Binding under nucleotide conditions [2]	Bound CP^F, fluorescence anisotropy [2, 7]
CC(C)C[C@@H]1NC(=O)[C@H](Cc2ccccc2)NC(=O)CNC(=O)[C@H](CO)NC(=O)[C@H](Cc2ccccc2)NC(=O)[C@H](CC(=O)O)NC(=O)[C@@H]2CCCN2C(=O)[C@H]([C@@H](C)O)NC(=O)[C@@H](Cc2ccc(O)cc2)NC(=O)CSC[C@@H](C(=O)NCC(=O)N[C@@H](CO)C(=O)NCCC(=O)NCCC(=O)N[C@@H](CCCNC(=N)N)C(=O)N[C@@H](CCCCNC(=O)c2ccc3c(c2)C(=O)OC32c3ccc(O)cc3Oc3cc(O)ccc32)C(N)=O)NC(=O)[C@H](C)NC(=O)[C@H](CC(N)=O)NC(=O)[C@H](CCCNC(=N)N)NC(=O)[C@H](CC(C)C)NC(=O)[C@H](Cc2ccccc2)NC(=O)[C@H](C)NC1=O [CP12] ({CH2CO}-[dY]TPDFSGFLAFLRNACGS[βAla][βAla]RK(5FAM)-NH2; thioether N-16)	0.37 mmol Pi (g*min)^-1	0.127	0.130	0.122	0.069	preferentially bind under conditions where IF TmrAB is exclusively populated	0.023
CC[C@H](C)[C@@H]1NC(=O)[C@H]([C@@H](C)O)NC(=O)[C@H](CC(C)C)NC(=O)[C@H](Cc2c[nH]c3ccccc23)NC(=O)[C@H](Cc2ccccc2)NC(=O)[C@H](CC(N)=O)NC(=O)[C@H](CCC(=O)O)NC(=O)[C@H](CC(C)C)NC(=O)[C@H](CS)NC(=O)[C@H](Cc2c[nH]cn2)NC(=O)[C@H](CO)NC(=O)[C@@H](Cc2ccc(O)cc2)NC(=O)CSC[C@@H](C(=O)NCC(=O)N[C@@H](CO)C(=O)NCCC(=O)NCCC(=O)N[C@@H](CCCNC(=N)N)C(=O)N[C@@H](CCCCNC(=O)c2ccc3c(c2)C(=O)OC32c3ccc(O)cc3Oc3cc(O)ccc32)C(N)=O)NC(=O)[C@H](CC(C)C)NC1=O [CP6] ({CH2CO}-[dY]SHCLENFWLTILCGS[βAla][βAla]RK(5FAM)-NH2; thioether N-14)	0.54 mmol Pi (g*min)^-1	0.143	0.132	0.129	0.050	preferentially bind under conditions where IF TmrAB is exclusively populated	0.019
CC(C)[C@@H]1NC(=O)[C@H](Cc2ccccc2)NC(=O)[C@@H]2CCCN2C(=O)[C@H](CC(N)=O)NC(=O)[C@H](Cc2c[nH]c3ccccc23)NC(=O)[C@H](C(C)C)NC(=O)[C@H](Cc2ccc(O)cc2)NC(=O)[C@H](Cc2ccccc2)NC(=O)[C@@H](Cc2ccc(O)cc2)NC(=O)CSC[C@@H](C(=O)NCC(=O)N[C@@H](CO)C(=O)NCCC(=O)NCCC(=O)N[C@@H](CCCNC(=N)N)C(=O)N[C@@H](CCCCNC(=O)c2ccc3c(c2)C(=O)OC32c3ccc(O)cc3Oc3cc(O)ccc32)C(N)=O)NC(=O)[C@H](CCCCN)NC(=O)[C@H](Cc2ccccc2)NC1=O [CP14] ({CH2CO}-[dY]FYVWNPFVFKCGS[βAla][βAla]RK(5FAM)-NH2; thioether N-12; C-terminus assumed)	0.39 mmol Pi (g*min)^-1	0.134	0.132	0.131	0.127	bind in the absence and presence of ATP and ADP	0.023
CC[C@H](C)[C@@H]1NC(=O)[C@H](Cc2c[nH]c3ccccc23)NC(=O)[C@H](CC(N)=O)NC(=O)[C@H](C)NC(=O)[C@H](CO)NC(=O)[C@@H]2CCCN2C(=O)[C@H](CC(=O)O)NC(=O)[C@@H](Cc2ccc(O)cc2)NC(=O)CSC[C@@H](C(=O)NCC(=O)N[C@@H](CO)C(=O)NCCC(=O)NCCC(=O)N[C@@H](CCCNC(=N)N)C(=O)N[C@@H](CCCCNC(=O)c2ccc3c(c2)C(=O)OC32c3ccc(O)cc3Oc3cc(O)ccc32)C(N)=O)NC(=O)[C@H]([C@@H](C)O)NC(=O)[C@H](CC(C)C)NC(=O)[C@H](CC(C)C)NC(=O)[C@H](C(C)C)NC(=O)[C@H](CC(C)C)NC1=O [CP13] ({CH2CO}-[dY]DPSANWILVLLTCGS[βAla][βAla]RK(5FAM)-NH2; thioether N-14; C-terminus assumed)	0.39 mmol Pi (g*min)^-1	0.055	0.051	0.050	0.048	bind in the absence and presence of ATP and ADP	0.023
